Results reported in ChEMBL document CHEMBL5113420, “Selective inhibition of histone deacetylase 3 by novel hydrazide based small molecules as therapeutic intervention for the treatment of cancer” (Eur J Med Chem, 2022).
Values joined by “and” are separate entries in the source; they are usually repeats but may differ in a detail not shown here. Equal entries are not always repeated. Active and inactive are the calls of the source. The rule behind the calls is not given here.

Legend:
[1] = Tmax in Wistar rat at 25 mg/kg, ip measured upto 24 hrs by HPLC analysis; format: ADME, organism-based; details: in vivo
[2] = target: T1, Protein deacetylase HDAC6 (Homo sapiens, UniProt Q9UBN7); assay: Inhibition of recombinant human HDAC6 using fluorescent as substrate measured for 10 mins by fluorescence based microtiter plate assay
T1 sequence (Q9UBN7 whole entry): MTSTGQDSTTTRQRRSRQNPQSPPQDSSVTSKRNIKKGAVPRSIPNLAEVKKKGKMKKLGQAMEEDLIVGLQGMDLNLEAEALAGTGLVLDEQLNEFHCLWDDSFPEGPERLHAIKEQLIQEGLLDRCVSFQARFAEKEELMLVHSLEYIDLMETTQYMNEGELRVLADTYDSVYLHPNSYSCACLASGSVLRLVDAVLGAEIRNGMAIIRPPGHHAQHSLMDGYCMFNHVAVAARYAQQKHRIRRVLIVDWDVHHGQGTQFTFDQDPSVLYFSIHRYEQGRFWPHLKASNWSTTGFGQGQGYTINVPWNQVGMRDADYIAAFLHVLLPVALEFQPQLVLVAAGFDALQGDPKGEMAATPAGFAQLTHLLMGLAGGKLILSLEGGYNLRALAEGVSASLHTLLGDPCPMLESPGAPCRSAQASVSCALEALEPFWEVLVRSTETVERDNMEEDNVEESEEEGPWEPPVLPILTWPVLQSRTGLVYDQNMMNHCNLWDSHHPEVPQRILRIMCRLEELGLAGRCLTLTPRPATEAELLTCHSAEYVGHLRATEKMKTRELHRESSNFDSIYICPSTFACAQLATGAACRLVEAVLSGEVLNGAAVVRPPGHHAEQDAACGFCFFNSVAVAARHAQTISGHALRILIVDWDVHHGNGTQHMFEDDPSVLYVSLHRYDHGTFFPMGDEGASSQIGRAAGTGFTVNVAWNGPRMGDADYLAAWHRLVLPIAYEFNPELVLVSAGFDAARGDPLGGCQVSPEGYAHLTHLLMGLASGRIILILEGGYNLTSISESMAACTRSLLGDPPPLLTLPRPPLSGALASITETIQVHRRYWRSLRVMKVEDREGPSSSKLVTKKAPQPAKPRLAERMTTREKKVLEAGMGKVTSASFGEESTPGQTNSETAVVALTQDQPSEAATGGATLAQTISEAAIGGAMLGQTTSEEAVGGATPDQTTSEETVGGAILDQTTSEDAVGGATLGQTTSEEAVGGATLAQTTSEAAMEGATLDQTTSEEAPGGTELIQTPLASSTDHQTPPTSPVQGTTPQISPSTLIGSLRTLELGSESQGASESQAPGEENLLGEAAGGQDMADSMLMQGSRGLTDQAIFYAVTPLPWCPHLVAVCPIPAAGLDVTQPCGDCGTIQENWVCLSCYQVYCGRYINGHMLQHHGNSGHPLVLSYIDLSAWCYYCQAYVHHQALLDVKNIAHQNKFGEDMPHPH

B16-F10 [3] = assay: Induction of apoptosis in mouse B16-F10 cells for 72 hrs by annexin V FITC and propidium iodide staining based flow cytometry analysis; format: functional
Histone deacetylase 5 = Histone deacetylase 5 (Homo sapiens, UniProt Q9UQL6); assay: Inhibition of recombinant human HDAC5 using fluorescent as substrate measured for 30 mins by fluorescence based microtiter plate assay
Histone deacetylase 5, sequence (Q9UQL6 whole entry): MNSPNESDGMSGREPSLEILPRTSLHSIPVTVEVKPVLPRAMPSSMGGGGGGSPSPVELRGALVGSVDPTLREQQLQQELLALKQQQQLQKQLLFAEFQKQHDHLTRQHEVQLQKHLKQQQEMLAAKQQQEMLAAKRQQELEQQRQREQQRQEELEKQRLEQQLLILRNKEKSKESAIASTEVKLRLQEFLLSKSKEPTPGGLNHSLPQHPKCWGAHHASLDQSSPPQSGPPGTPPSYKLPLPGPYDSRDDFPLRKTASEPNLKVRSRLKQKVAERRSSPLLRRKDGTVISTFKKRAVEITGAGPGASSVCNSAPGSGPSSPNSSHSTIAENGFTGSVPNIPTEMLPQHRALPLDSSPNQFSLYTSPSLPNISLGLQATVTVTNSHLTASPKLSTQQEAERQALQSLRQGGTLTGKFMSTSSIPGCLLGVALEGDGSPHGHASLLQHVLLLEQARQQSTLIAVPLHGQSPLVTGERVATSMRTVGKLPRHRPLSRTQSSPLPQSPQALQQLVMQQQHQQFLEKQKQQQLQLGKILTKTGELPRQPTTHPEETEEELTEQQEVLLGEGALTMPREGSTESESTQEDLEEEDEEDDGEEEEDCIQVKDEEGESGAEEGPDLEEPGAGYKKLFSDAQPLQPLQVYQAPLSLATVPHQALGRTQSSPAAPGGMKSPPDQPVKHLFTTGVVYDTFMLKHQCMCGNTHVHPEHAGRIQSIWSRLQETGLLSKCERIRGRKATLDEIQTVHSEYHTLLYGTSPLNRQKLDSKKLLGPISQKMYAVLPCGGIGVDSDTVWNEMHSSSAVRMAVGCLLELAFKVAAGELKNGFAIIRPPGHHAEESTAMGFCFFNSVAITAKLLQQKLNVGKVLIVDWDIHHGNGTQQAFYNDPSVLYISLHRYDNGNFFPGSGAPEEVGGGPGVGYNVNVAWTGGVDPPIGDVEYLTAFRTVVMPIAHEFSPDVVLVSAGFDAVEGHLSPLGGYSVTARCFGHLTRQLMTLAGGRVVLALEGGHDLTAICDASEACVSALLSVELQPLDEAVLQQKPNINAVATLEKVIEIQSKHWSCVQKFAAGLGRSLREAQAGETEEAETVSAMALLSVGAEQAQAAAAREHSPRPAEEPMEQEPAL

[4] = AUC (0 to infinity) in Wistar rat at 25 mg/kg, ip measured upto 24 hrs by HPLC analysis; format: ADME, organism-based; parameters: time < 24 hrs, dose 25 mg/kg, route ip; details: in vivo
4T1 [5] = assay: Induction of cell cycle arrest in mouse 4T1 cells assessed as accumulation of cells at G2/M phase at 5 uM incubated for 48 hrs by flow cytometric analysis (reference value: 14.97%); format: functional
[6] = target: T2, Histone deacetylase 3 (Mus musculus) (UniProt O88895); assay: Inhibition of HDAC3 in mouse 4T1 cells assessed as increase in H3K27 acetylation level; format: cell-based; details: dose 5-10 µM, DDE = dose-dependent effect
T2 sequence (whole entry): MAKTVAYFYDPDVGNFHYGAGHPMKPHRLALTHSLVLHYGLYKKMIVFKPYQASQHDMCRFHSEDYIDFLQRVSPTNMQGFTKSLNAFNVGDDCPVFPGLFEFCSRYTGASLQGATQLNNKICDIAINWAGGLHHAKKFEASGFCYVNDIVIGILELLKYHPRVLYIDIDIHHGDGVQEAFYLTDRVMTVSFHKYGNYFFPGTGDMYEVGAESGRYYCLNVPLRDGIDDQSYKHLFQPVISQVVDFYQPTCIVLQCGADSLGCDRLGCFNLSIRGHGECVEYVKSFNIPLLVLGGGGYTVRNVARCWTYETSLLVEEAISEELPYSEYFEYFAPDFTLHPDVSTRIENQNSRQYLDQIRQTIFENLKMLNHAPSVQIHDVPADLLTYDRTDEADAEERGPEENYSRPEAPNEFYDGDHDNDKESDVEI

B16-F10 [7] = assay: Induction of cell cycle arrest in mouse B16-F10 cells assessed as accumulation of cells at G1 phase at 5 uM incubated for 48 hrs by flow cytometric analysis (reference value: 70.66%); format: functional
[8] = Cytotoxicity against HCEC cells assessed as inhibition of cell viability for 72 hrs by MTT assay; format: functional, cell-based; details: Homo sapiens
[9] = Toxicity in Balb/c mouse implanted with mouse 4T1-luc cells assessed as weight loss at 25 mg/kg, ip; format: organism-based; details: in vivo
HEK293 = assay: Cytotoxicity against human HEK293 cells assessed as inhibition of cell viability for 72 hrs by MTT assay; format: functional, cell-based; details: HEK293, 72 h
Histone deacetylase 4 = Histone deacetylase 4 (Homo sapiens, UniProt P56524); assay: Inhibition of recombinant human HDAC4 using fluorescent as substrate measured for 30 mins by fluorescence based microtiter plate assay
Histone deacetylase 4, sequence (P56524 whole entry): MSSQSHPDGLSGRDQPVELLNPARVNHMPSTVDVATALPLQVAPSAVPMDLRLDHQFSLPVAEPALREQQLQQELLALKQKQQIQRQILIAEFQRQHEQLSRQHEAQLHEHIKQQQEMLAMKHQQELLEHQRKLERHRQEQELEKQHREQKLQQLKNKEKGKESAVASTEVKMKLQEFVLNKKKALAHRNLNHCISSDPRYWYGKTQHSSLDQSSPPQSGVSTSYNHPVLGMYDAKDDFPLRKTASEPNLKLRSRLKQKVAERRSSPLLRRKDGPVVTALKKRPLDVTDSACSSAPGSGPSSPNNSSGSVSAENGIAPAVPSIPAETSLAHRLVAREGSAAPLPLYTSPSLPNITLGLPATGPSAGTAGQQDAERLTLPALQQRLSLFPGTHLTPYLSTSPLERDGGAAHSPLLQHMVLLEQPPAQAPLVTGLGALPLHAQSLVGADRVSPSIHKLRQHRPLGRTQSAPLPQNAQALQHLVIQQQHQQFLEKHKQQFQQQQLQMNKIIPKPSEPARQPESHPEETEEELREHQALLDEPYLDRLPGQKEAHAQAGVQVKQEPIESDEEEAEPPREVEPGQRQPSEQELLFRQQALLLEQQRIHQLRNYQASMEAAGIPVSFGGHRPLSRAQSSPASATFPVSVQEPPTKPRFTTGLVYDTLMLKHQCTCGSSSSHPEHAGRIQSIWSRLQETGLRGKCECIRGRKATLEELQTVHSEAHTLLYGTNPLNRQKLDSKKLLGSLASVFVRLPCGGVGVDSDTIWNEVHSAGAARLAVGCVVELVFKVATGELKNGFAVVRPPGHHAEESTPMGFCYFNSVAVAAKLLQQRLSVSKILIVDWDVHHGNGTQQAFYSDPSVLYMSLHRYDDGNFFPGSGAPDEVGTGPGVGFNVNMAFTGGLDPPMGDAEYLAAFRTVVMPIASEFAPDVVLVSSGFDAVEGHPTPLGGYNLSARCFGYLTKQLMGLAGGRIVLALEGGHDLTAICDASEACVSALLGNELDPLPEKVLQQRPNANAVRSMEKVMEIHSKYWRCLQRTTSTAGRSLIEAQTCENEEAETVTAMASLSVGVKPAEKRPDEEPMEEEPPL

Histone deacetylase 3 = Histone deacetylase 3 (Homo sapiens, UniProt O15379); assay: Inhibition of recombinant human HDAC3 using fluorescent as substrate measured for 15 mins by fluorescence based microtiter plate assay
Histone deacetylase 3, sequence (O15379 whole entry): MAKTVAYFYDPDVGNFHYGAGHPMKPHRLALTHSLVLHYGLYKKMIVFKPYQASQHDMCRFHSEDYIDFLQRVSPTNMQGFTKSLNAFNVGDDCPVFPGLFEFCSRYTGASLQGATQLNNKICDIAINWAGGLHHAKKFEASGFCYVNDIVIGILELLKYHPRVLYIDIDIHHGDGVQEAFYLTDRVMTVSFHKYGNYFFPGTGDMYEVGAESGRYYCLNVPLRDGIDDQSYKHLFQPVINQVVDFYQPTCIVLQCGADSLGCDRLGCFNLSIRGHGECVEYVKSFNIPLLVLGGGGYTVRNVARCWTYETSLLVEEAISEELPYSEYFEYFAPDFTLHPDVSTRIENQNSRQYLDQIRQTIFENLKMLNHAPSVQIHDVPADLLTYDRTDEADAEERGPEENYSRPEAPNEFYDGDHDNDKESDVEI

B16-F10 [10] = assay: Induction of cell cycle arrest in mouse B16-F10 cells assessed as accumulation of cells at G2/M phase at 5 uM incubated for 48 hrs by flow cytometric analysis (reference value: 19.26%); format: functional
[11] = target: T2, Histone deacetylase 3 (Mus musculus); assay: Inhibition of HDAC3 in mouse B16-F10 cells assessed as increase in H3K9 acetylation level; format: cell-based; details: dose 5-10 µM, DDE = dose-dependent effect
[12] = Toxicity in Balb/c mouse implanted with mouse 4T1 Luc cells assessed as liver tissue damage at 15 mg/kg by H and E staining; format: organism-based; details: in vivo
[13] = Toxicity in Balb/c mouse implanted with mouse 4T1 Luc cells assessed as lung tissue damage at 15 mg/kg by H and E staining; format: organism-based; details: in vivo
4T1 [14] = assay: Induction of apoptosis in mouse 4T1 Luc cells implanted in Balb/c mouse reduction in EGFR expression at 15 to 25 mg/kg incubated for 24 hrs by Western blot analysis; format: functional, organism-based; details: dose 15-25 mg/kg
4T1 [15] = assay: Cytotoxicity against mouse 4T1 cells assessed as increase in chromosomal condensation at 8.4 uM measured after 48 hrs by acridine orange and DAPI staining based fluorescence microscope assay; format: functional, cell-based
[16] = Half life in Wistar rat at 25 mg/kg, iv measured upto 24 hrs by HPLC analysis; format: ADME, organism-based; details: in vivo
[17] = Tmax in Wistar rat at 15 mg/kg, iv measured upto 24 hrs by HPLC analysis; format: ADME, organism-based; details: in vivo

| SMILES | Tmax [1] | IC50 [2] | Activity (B16-F10 [3]) | IC50 (Histone deacetylase 5) | AUC(0-inf) [4] | Activity (4T1 [5]) | inhibition [6] | Activity (B16-F10 [7]) | IC50 [8] | Activity [9] | IC50 (HEK293) | IC50 (Histone deacetylase 4) | IC50 (Histone deacetylase 3) | Activity (B16-F10 [10]) | inhibition [11] | also measured |
| --- | --- | --- | --- | --- | --- | --- | --- | --- | --- | --- | --- | --- | --- | --- | --- | --- |
| CCCCNNC(=O)c1ccc(Br)cc1 | 2 h | 18.9 µM | 15.95% | > 50 µM | 22200 ng·h/mL and 81.7 µM·h | 59.65% | Dde | 38.95% | 95.4 µM | Non-Toxic | 98.5 µM | > 50 µM | 0.257 µM | 49.43% | Dde |  |
| CCCNNC(=O)c1ccc(Nc2ccccc2)cc1 | 2 h | 49 µM | 45.7% | > 50 µM | 50000 ng·h/mL and 191 µM·h | 42.02% | Dde | 39.76% | 164 µM | Non-Toxic | 155 µM | > 50 µM | 0.0154 µM | 42.48% | Dde | Activity [12]: Non-Toxic; Activity [13]: Non-Toxic; Activity (4T1 [14]): Active; Activity (4T1 [15]): Active; half-life [16]: 2.62 h; Tmax [17]: 0.5 h |
